According to patent publication US12673032B2, “Exploiting estrogen receptor beta and TP53 interaction as a new therapeutic strategy for cancer” (Health Research, Inc., priority 2018, dated 2026):
Where two headings read alike, the source gives them in different places.

Assays:
[1] = system: MDA-MB-231 cells expressing mutant p53; experiment: Doxorubicin cell-killing IC50 in TNBC cells expressing mutant p53, with or without tamoxifen; format: cell-based; conditions: for IC50: Homo sapiens
[2] = system: TP73 recruitment to the PUMA gene promoter; experiment: qChIP for BBC3 (PUMA) promoter occupancy by TP73; format: cell-based; conditions: MDA-MB-231 cells; 5 μM for 24 hours
Procedure: FIGS. 17A-C. […] (A) Cells were treated with 5 μM TAM for 24 hours. After 24 hours, BBC3 promoter occupancy by TP73 was determined using qChIP in MDA-MB-231 cells. (B) SK-BR-3 cells were transfected with si-NS or si-ESR2 #2 for 48 hours and treated with or without 5 μM TAM for 24 hours. After 72 hours, expression of TP53 target genes (CDKN1A and BBC3) was determined using qRT-PCR. (C) SK-BR-3 cells were transfected with si-NS or si-TP73 for 48 hours and treated with or without 5 μM TAM for 24 hours. After 72 hours, expression of TP53 target genes (CDKN1A and BBC3) was determined using qRT-PCR. Error bars are represented as mean SD of three independent experiments. All ‘p’ values were determined by two tailed student t-test. qRT-PCR=Quantitative real time polymerase chain reaction. si-NS=non-specific siRNA; si-ESR2 #2=ESR2 specific siRNA; si-TP73=TP73 specific siRNA; VEH=Vehicle; TAM=4-Hydroxytamoxifen.
Chromatin immunoprecipitation (ChIP) assay. […] Immunoprecipitated chromatin samples were analyzed through real-time q-PCR as stated above. A region downstream of CDKN1A/p21 promoter sequence was used as endogenous control for the relative quantitation of immunoprecipitated chromatin fragments (Details of the primers are provided in Table 1). The promoter occupancy by transcription factor (s) of interest was analyzed as qRT-PCR.

| Compound | IC50 ([1]; MDA-MB-231, read-out: IC50 of doxorubicin with addition of tamoxifen) [nM] | IC50 ([1]; read-out: IC50 (drug concentration required to kill 50% cells) of doxorubicin, MDA-MB-231 expressing mutant p53, doxorubicin alone) [nM] | Decrease of doxorubicin IC50 on addition of tamoxifen ([1]; MDA-MB-231 expressing mutant p53) | recruitment of TP73 to the PUMA gene promoter (qChIP) [2] |
| --- | --- | --- | --- | --- |
| COc1cccc2c1C(=O)c1c(O)c3c(c(O)c1C2=O)C[C@@](O)(C(=O)CO)C[C@@H]3O[C@H]1C[C@H](N)[C@H](O)[C@H](C)O1 [doxorubicin] | 150 | 1050 | about 7 fold | – |
| 4-hydroxy tamoxifen | – | – | – | enhanced |
